From US20040209283A1, “Continuous-read assay for the detection of de novo HCV RNA polymerase activity” (Pfizer Inc., priority 2002, published 2004)

Experiments:
double-stranded NR-2 = experiment: Binding of PicoGreen to double-stranded NR-2 at varying buffer component concentrations (fluorescence intensity); settings: for Fluorescence Intensity (% of control ± SD; n = 2): 7 nM double-stranded NR2, 600 nM PicoGreen; for effect on the binding of PicoGreen to the double-stranded template: at the concentrations tested
Protocol: To assess the effect of buffer component concentration on the binding of PicoGreen® to double-stranded NR-2, mixtures containing 7 nM double-stranded NR2, 600 nM PicoGreen®, and varying concentrations of the buffer components were prepared, and the fluorescence intensities of these mixtures were measured. These mixtures were prepared using between 4 fold less to 1.25 to 2 fold more of the individual buffer components (relative to the amount of the components used in the reactions described in Example 1).

C delta 21 NS5B = experiment: Continuous-read fluorescence assay of de novo NS5B polymerase activity; format: biochemical, Hepatitis C virus (HCV)
Protocol: Reactions were prepared by first placing 0.5 μL of 100% DMSO into the wells of an assay plate (Corning, black, 384-well, NBS #3654). In reactions in which modulators or inhibitors of RNA polymerase activity are to be identified, a test compound may be added to the DMSO. A solution (Solution-1) containing 162 nM of C delta 21 NS5B and 28 nM NR-2 in an assay buffer comprising 20 mM Tris-HCl, pH 7.5; 100 mM ammonium acetate; 2 mM MnCl2; 10 mM DTT; and 2 mM CHAPS, was then prepared and incubated at ambient temperature for a minimum of 15 minutes. During this incubation, a second solution (Solution-2) was prepared by mixing 76 nM of PicoGreen® with 2.7 μM UTP, 2.7 μM CTP, 2.7 μM ATP, 67 μM GTP in the assay buffer that is described above. Next, 10 μL of Solution-1 was added to the wells of the assay plate containing DMSO and the plate was incubated for 15 minutes at ambient temperature. […]
The reactions were monitored on a LJL Analyst (Molecular Devices Corp.; Sunnyvale, Calif.), which excited the PicoGreen® at 485 nm and detected PicoGreen® fluorescence at 530 nm.
The effect of increasing concentrations of PicoGreen® on reaction kinetics was also assessed. […] The calculated initial velocity (v0=span x kexp) increased as the concentration of PicoGreen® was increased from 50 to 600 nM, and appeared to plateau at between 600 and 800 nM PicoGreen® (FIG. 5C).

[1] = component final concentration 0.5 mM
[2] = component final concentration 1 mM
[3] = component final concentration 2 mM
[4] = component final concentration 4 mM

[Cl][Mn][Cl] [MnCl2]
inhibition of the binding of PicoGreen to the template (double-stranded NR-2; at 2 mM): approximately 35% | inhibition of the binding of PicoGreen to the template (double-stranded NR-2; at 4 mM): ~55% | Fluorescence Intensity (% of control ± SD; n = 2) (double-stranded NR-2; [1]): 96 ± 2 % of control | Fluorescence Intensity (% of control ± SD; n = 2) (double-stranded NR-2; [2]): 82 ± 1 % of control | Fluorescence Intensity (% of control ± SD; n = 2) (double-stranded NR-2; [3]): 65 ± 1 % of control | Fluorescence Intensity (% of control ± SD; n = 2) (double-stranded NR-2; [4]): 45 ± 2 % of control

O[C@@H](CS)[C@@H](O)CS [DTT]
effect on the binding of PicoGreen to the double-stranded template (double-stranded NR-2): Neither DTT nor chaps affected the binding | Fluorescence Intensity (% of control ± SD; n = 2) (double-stranded NR-2; component final concentration 2.5 mM): 98 ± 5 % of control | Fluorescence Intensity (% of control ± SD; n = 2) (double-stranded NR-2; component final concentration 5 mM): 100 ± 2 % of control | Fluorescence Intensity (% of control ± SD; n = 2) (double-stranded NR-2; component final concentration 10 mM): 100 ± 1 % of control | Fluorescence Intensity (% of control ± SD; n = 2) (double-stranded NR-2; component final concentration 20 mM): 96 ± 3 % of control

CC(=O)O.N [Ammonium Acetate]
inhibition of PicoGreen binding (double-stranded NR-2; at 100 mM): 5% | inhibition of PicoGreen binding (double-stranded NR-2; at 125 mM): 10% | Fluorescence Intensity (% of control ± SD; n = 2) (double-stranded NR-2; component final concentration 12.5 mM): 105 ± 1 % of control | Fluorescence Intensity (% of control ± SD; n = 2) (double-stranded NR-2; component final concentration 25 mM): 103 ± 1 % of control | Fluorescence Intensity (% of control ± SD; n = 2) (double-stranded NR-2; component final concentration 50 mM): 109 ± 1 % of control | Fluorescence Intensity (% of control ± SD; n = 2) (double-stranded NR-2; component final concentration 100 mM): 95 ± 1 % of control | Fluorescence Intensity (% of control ± SD; n = 2) (double-stranded NR-2; component final concentration 125 mM): 89 ± 2 % of control | effect on NS5B activity (C delta 21 NS5B; 100 mM ammonium acetate): appeared to enhance NS5B activity

C[C@H](CCC(=O)NCCC[N+](C)(C)CCCS(=O)(=O)[O-])[C@H]1CC[C@H]2[C@@H]3[C@H](O)C[C@@H]4C[C@H](O)CC[C@]4(C)[C@H]3C[C@H](O)[C@]12C [CHAPS]
effect on the binding of PicoGreen to the double-stranded template (double-stranded NR-2): Neither DTT nor chaps affected the binding | Fluorescence Intensity (% of control ± SD; n = 2) (double-stranded NR-2; [1]): 98 ± 3 % of control | Fluorescence Intensity (% of control ± SD; n = 2) (double-stranded NR-2; [2]): 96 ± 1 % of control | Fluorescence Intensity (% of control ± SD; n = 2) (double-stranded NR-2; [3]): 96 ± 1 % of control | Fluorescence Intensity (% of control ± SD; n = 2) (double-stranded NR-2; [4]): 102 ± 1 % of control

CN(C)CCCN(CCCN(C)C)c1cc(C=C2Sc3ccccc3N2C)c2ccccc2[n+]1-c1ccccc1 [PicoGreen®, reference compound]
change of experimental rate constant (kexp) of the first-order reaction (C delta 21 NS5B; at 600 nM PicoGreen): slightly less than a two-fold decrease
